ChEMBL document CHEMBL4610068, “Diterpenoids from the Root Bark of Pinus massoniana and Evaluation of Their Phosphodiesterase Type 4D Inhibitory Activity” (J Nat Prod, 2020)

Biological target: 3',5'-cyclic-AMP phosphodiesterase 4D (Homo sapiens, UniProt Q08499)
Experiment: Inhibition of human PDE4D catalytic domain (86 to 413 residues) expressed in Escherichia coli BL21 (DE3) cells using [3H]cAMP as substrate measured after 30 mins by scintillation proximity assay

Chain of 3',5'-cyclic-AMP phosphodiesterase 4D (Q08499 whole entry, the tested form may be a part): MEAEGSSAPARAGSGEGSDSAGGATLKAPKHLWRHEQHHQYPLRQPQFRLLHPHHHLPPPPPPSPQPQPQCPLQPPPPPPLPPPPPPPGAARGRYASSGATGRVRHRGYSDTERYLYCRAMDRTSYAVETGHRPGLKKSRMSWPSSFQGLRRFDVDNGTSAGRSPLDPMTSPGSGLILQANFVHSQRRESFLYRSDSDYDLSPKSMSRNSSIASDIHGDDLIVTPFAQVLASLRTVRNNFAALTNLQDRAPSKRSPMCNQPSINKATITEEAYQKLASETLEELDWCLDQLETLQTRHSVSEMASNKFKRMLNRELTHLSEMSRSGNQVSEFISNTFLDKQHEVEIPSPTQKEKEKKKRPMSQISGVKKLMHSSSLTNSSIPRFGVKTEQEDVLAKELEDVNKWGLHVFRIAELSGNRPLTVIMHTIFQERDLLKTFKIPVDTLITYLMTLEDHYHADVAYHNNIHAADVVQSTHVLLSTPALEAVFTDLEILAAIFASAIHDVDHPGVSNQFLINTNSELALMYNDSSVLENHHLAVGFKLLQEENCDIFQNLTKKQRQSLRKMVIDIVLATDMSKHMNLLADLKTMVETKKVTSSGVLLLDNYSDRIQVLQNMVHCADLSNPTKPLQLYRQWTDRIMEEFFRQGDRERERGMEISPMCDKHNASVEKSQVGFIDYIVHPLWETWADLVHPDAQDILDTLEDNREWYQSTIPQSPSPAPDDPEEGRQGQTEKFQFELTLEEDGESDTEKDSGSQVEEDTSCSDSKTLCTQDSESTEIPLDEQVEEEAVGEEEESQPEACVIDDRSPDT

IC50 [µM] | SMILES
3.3 | C=C(C)c1ccc2c(c1)CC[C@H]1[C@](C)(C(=O)O)CCC[C@]21C
2.8 | CC(C)C1=CC[C@H]2C(=CC[C@@H]3[C@]2(C)CCC[C@@]3(C)C(=O)O)C1=O
